Data as given in patent publication US20240277790A1, “RECOMBINANT BACULOVIRUSES, ALPHAVIRUS VIRUS-LIKE REPLICON PARTICLES PRODUCED THEREOF AND THEIR USES” (priority 2023, published 2024).

System: mos-CHIK-VRPs
Test: VRP-based antiviral drug assay (luciferase) on Vero cells
Type: cell-based, CHIKV
Details: Chikungunya virus, Vero cells, 2,500 IU VRPs/well, 1 hour + 5 hours at 34° C., read-out: IC50 of inhibition of VRP infection
Method: Luciferase activity in the mos-CHIK-VRPs infected Vero cells was measured using a commercial luciferase assay kit (Promega) in accordance with the manufacturer's instructions. Signals reflecting the luciferase activity was read by a microplate reader (BioTek).
Suramin and 6-azauridine (6-AU) (both from Sigma-Aldrich) were dissolved in water to prepare the stock solutions (suramin, 50 mg/ml, 35 mM; 6-AU, 50 mg/ml, 200 mM) and then stored at −20° C. until use. Vero cells were seeded at a density of 1.5×10^4 cells/well (96 well white/clear bottom plate), and then infected with 2,500 IU VRPs/well in the presence of serially diluted suramin or 6-AU in MEM for 1 hour at 34° C. The suramin- or 6-AU-treated cells were then grown in a 5% FBS medium containing the corresponding concentrations of suramin or 6-AU for another 5 hours at 34° C., then VRP activity was measured by luciferase assay.

| SMILES | IC50 |
| --- | --- |
| Cc1ccc(C(=O)Nc2ccc(S(=O)(=O)O)c3cc(S(=O)(=O)O)cc(S(=O)(=O)O)c23)cc1NC(=O)c1cccc(NC(=O)Nc2cccc(C(=O)Nc3cc(C(=O)Nc4ccc(S(=O)(=O)O)c5cc(S(=O)(=O)O)cc(S(=O)(=O)O)c45)ccc3C)c2)c1 [suramin] | 81.3 µM |
| O=c1cnn([C@@H]2O[C@H](CO)[C@@H](O)[C@H]2O)c(=O)[nH]1 [6-AU, 6-azauridine] | 1.29 µg/mL |
